Data as given in patent EP0155872A1, “Process for reducing the lignin content of plants, and compositions for putting it into use” (priority 1984, dated 1985).

Columns and labels:
plants de maïs [1] = assay: Cell-wall polysaccharide content of treated maize plants; type: in vivo; settings: plants âgés de 30 jours; 80 µM
Protocol: Les différentes études dont les résultats sont rapportés ci-après ont été réalisées à partir de plants de mais âgés de 30 jours et traités par l'OHPAS et le NH2PAS à la concentration de 80 µM.
Le dosage de l'ensemble des polysaccharides pariétaux mais également de la fraction cellulosique n'a révélé aucune différence significative entre les plants témoins et les plants traités.

CAD de peuplier = target: T1, CAD de peuplier (Populus deltoides, UniProt P31657); assay: In vitro inhibition of isolated poplar cinnamyl alcohol dehydrogenase (CAD) at 2 mM; type: biochemical; settings: mode of action study
T1 construct: CAD de peuplier isolée selon la méthode deSARNI et al,1984; from tissue; host or cells: poplar plant material
T1 sequence (P31657 1-357): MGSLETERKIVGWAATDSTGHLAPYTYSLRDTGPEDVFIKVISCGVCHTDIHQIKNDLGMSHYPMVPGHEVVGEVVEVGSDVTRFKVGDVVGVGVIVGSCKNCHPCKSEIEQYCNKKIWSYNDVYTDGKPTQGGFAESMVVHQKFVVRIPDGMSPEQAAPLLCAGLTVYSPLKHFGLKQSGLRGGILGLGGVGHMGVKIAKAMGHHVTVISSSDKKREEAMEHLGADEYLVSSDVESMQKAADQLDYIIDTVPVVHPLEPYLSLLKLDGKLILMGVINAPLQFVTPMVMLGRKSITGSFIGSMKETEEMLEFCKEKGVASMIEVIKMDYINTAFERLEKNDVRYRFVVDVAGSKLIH

[2] = system: fractions de xylème de peuplier; assay: Incorporation of cinnamic acid (14C3) into lignins by isolated poplar xylem fractions; type: cell-based; settings: for Taux de radio-activité incorporé dans les lignines (%) / Radioactivité absorbée (µCi/essai) / Radioactivité incorporée dans les lignines (µCi/essai): 30 h; for Radioactivité absorbée (µCi/essai) / Radioactivité incorporée dans les lignines (µCi/essai): mean of 3; for inhibition at 200 µM / inhibition at 1000 µM: relative to % incorporated in the control = 100
Protocol: Les tissus de xylème isolés (300 mg par essai) sont mis en suspension dans des fioles d'erlenmeyer (25ml), bouchées par du coton cardé contenant : • - du tampon Tris/HCl, O,lM, pH 7,5 (qsp Sml) maintenant le pH entre 7 et 8, • - du Dextran T40 (25 g/1) utilisé comme agent osmotique, ne constituant pas une source de carbone pour la cellule végétale, • - du mercaptoéthanol (O,lmM), antioxydant qui empêche un brunissement très rapide des tissus, • - de l'éther monométhylique de l'éthylène glycol (EMMEG) (50 µl) ou des inhibiteurs solubilisés dans ce polyol (5^0 µ1), • - de l'acide cinnamique (^14C3) (2,5 µCi).
Les fioles sont palcées à 26°C, sous agitation orbitale (agitateur New Brunswick modèle G 10,100 rpm) et sous un éclairement de 4000 lux pendant 30 h. La radioactivité incorporée par les lignines est alors estimée à partir de "poudre alcool-benzène" obtenu par extraction à l'alcool-benzène des fractions tissulaires lyophilisées et réduites en poudre.
Afin de mesurer l'absorption de l'acide cinnamique par les fractions tissulaires et de corriger d'éventuelles différences d'absorption selon les essais, une fraction aliquote du milieu d'incubation (50 µl) est prélevée à différents temps et la radioactivité estimée au compteur à scintillation liquide.
La mesure de la radioactivité libérée sous forme de ^14CO2 après combustion totale des "poudres alcool-benzène" révèle qu'en présence du OHPAS ou du NH2PAS, on observe une baisse de la radioactivité retrouvée dans les lignines. Ainsi, ces inhibiteurs entraînent à la concentration de lmM, une inhibition de 40 à 70% de la synthèse des lignines radioactives. Ces résultats sont rapportés dans le tableau 3 ci-après : […]

plants de luzerne = assay: Lignin content of 30-day alfalfa plants; type: in vivo; settings: plants de luzerne de 30 jours
Text: 6) Effets des inhibiteurs sur la teneur en lignines de plants de luzerne de 30 jours : • Le protocole est le même que celui décrit pour les plants de mais.
On rapporte dans le tableau 7 ci-après les pourcentages d'inhibition obtenus en fonction de la concentration en produit.

plants de maïs [3] = assay: Growth of maize plants treated with the inhibitors (weights, water content); type: in vivo
Protocol: Des plants de maïs ont été traités pendant 10, 20 ou 30 jours par l'OHPAS et le NH2PAS à deux concentrations (80 et 160 µM).
Les .inhibiteurs sont ajoutés au milieu nutritif.
Les cultures sur vermiculite (20 plants) sont arrosées quotidiennement par 250 ml de milieu (avec ou sans inhibiteurs). Les semis constituent le temps 0 de la culture, l'addition des inhibiteurs au milieu nutritif est réalisée dès l'émergence de la partie aérienne (2 à 3 jours). Les différentes caractéristiques des plants sont estimées après 10, 20 ou 30 jours.
Le traitement par les deux inhibiteurs conduit à des plants de maïs dont les caractéristiques pondérales et les teneurs en eau sont données dans le tableau 4. L'analyse des résultats ne montre aucune différence significative entre les plants traités et les plants témoins. De même, les tailles et l'aspect morphologique des différents lots sont similaires. Toutefois, on constate que le port dressé des maïs est légèrement affecté.

[4] = 10 jours de culture, 160 µm en inhibiteurs
[5] = 10 jours de culture, concentration not given
[6] = 10 jours de culture, concentration not given, mean of 20 plants
[7] = 20 jours de culture, 160 µm en inhibiteurs
[8] = 20 jours de culture, concentration not given
[9] = 30 jours de culture, 160 µm en inhibiteurs
[10] = 30 jours de culture, concentration not given

CC(C)(C)OC(=O)C[S+]([O-])Nc1ccccc1O (stereo not drawn) [composé 2, N-(o -hydroxy phényl)sulfinamoyl acétate de tertiobutyle]
synthèse de la fraction polysaccharidique de la paroi (plants de maïs [1]): n'apparaîssent pas affecter
réversibilité de l'inhibition de la CAD (CAD de peuplier): faiblement réversible
Taux de radio-activité incorporé dans les lignines (%) ([2]; 0,2mM): 24%
Radioactivité absorbée (µCi/essai) ([2]; 0,2mM): 0,75 µCi/essai
Radioactivité incorporée dans les lignines (µCi/essai) ([2]; 0,2mM): 0,18 µCi/essai
inhibition at 200 µM ([2]; 0,2mM): 17%
Taux de radio-activité incorporé dans les lignines (%) ([2]; 1mM): 10%
Radioactivité absorbée (µCi/essai) ([2]; 1mM): 0,75 µCi/essai
Radioactivité incorporée dans les lignines (µCi/essai) ([2]; 1mM): 0,075 µCi/essai
inhibition at 1000 µM ([2]; 1mM): 70%
% d'inhibition (teneur en lignines) (plants de luzerne; 25 µM): 13%
% d'inhibition (teneur en lignines) (plants de luzerne; 50 µM): 31%
Poids matériel frais g/plant (plants de maïs [3]; [4]): 0,98 g/plant
Poids matériel sec g/plant (plants de maïs [3]; [4]): 0,083 g/plant
Teneur en eau g/g de poids sec (plants de maïs [3]; [4]): 10,81 g/g de poids sec
Poids matériel sec g/plant (plants de maïs [3]; [5]): 0,103 g/plant
Teneur en eau g/g de poids sec (plants de maïs [3]; [5]): 18,40 g/g de poids sec
Poids matériel frais g/plant (plants de maïs [3]; [6]): 2,00 g/plant
Poids matériel frais g/plant (plants de maïs [3]; [7]): 2,98 g/plant
Poids matériel sec g/plant (plants de maïs [3]; [7]): 0,300 g/plant
Teneur en eau g/g de poids sec (plants de maïs [3]; [7]): 8,93 g/g de poids sec
Poids matériel frais g/plant (plants de maïs [3]; [8]): 3,20 g/plant
Poids matériel sec g/plant (plants de maïs [3]; [8]): 0,318 g/plant
Teneur en eau g/g de poids sec (plants de maïs [3]; [8]): 9,06 g/g de poids sec
Poids matériel frais g/plant (plants de maïs [3]; [9]): 4,52 g/plant
Poids matériel sec g/plant (plants de maïs [3]; [9]): 0,429 g/plant
Teneur en eau g/g de poids sec (plants de maïs [3]; [9]): 9,53 g/g de poids sec
Poids matériel frais g/plant (plants de maïs [3]; [10]): 4,65 g/plant
Poids matériel sec g/plant (plants de maïs [3]; [10]): 0,420 g/plant
Teneur en eau g/g de poids sec (plants de maïs [3]; [10]): 10,07 g/g de poids sec

CC(C)(C)OC(=O)C[S+]([O-])Nc1ccccc1N (stereo not drawn) [composé 5, N-(o-Amino phényl)Sulfinamoyl Acétate de tertiobutyle]
synthèse de la fraction polysaccharidique de la paroi (plants de maïs [1]): n'apparaîssent pas affecter
réversibilité de l'inhibition de la CAD (CAD de peuplier): faiblement réversible
Taux de radio-activité incorporé dans les lignines (%) ([2]; 0,2mM): 32%
Radioactivité absorbée (µCi/essai) ([2]; 0,2mM): 0,80 µCi/essai
Radioactivité incorporée dans les lignines (µCi/essai) ([2]; 0,2mM): 0,26 µCi/essai
inhibition at 200 µM ([2]; 0,2mM): 4%
Taux de radio-activité incorporé dans les lignines (%) ([2]; 1mM): 20%
Radioactivité absorbée (µCi/essai) ([2]; 1mM): 0,80 µCi/essai
Radioactivité incorporée dans les lignines (µCi/essai) ([2]; 1mM): 0,16 µCi/essai
inhibition at 1000 µM ([2]; 1mM): 40%
% d'inhibition (teneur en lignines) (plants de luzerne; 25 µM): 20%
% d'inhibition (teneur en lignines) (plants de luzerne; 50 µM): 17%
Poids matériel frais g/plant (plants de maïs [3]; [4]): 1,00 g/plant
Poids matériel sec g/plant (plants de maïs [3]; [4]): 0,088 g/plant
Teneur en eau g/g de poids sec (plants de maïs [3]; [4]): 13,36 g/g de poids sec
Poids matériel sec g/plant (plants de maïs [3]; [5]): 0,108 g/plant
Teneur en eau g/g de poids sec (plants de maïs [3]; [5]): 15,70 g/g de poids sec
Poids matériel frais g/plant (plants de maïs [3]; [6]): 1,80 g/plant
Poids matériel frais g/plant (plants de maïs [3]; [7]): 3,25 g/plant
Poids matériel sec g/plant (plants de maïs [3]; [7]): 0,321 g/plant
Teneur en eau g/g de poids sec (plants de maïs [3]; [7]): 9,12 g/g de poids sec
Poids matériel frais g/plant (plants de maïs [3]; [8]): 3,00 g/plant
Poids matériel sec g/plant (plants de maïs [3]; [8]): 0,298 g/plant
Teneur en eau g/g de poids sec (plants de maïs [3]; [8]): 9,07 g/g de poids sec
Poids matériel frais g/plant (plants de maïs [3]; [9]): 4,80 g/plant
Poids matériel sec g/plant (plants de maïs [3]; [9]): 0,458 g/plant
Teneur en eau g/g de poids sec (plants de maïs [3]; [9]): 9,48 g/g de poids sec
Poids matériel frais g/plant (plants de maïs [3]; [10]): 4,40 g/plant
Poids matériel sec g/plant (plants de maïs [3]; [10]): 0,438 g/plant
Teneur en eau g/g de poids sec (plants de maïs [3]; [10]): 9,04 g/g de poids sec
